Results reported in patent publication US20250082614A1, “METHODS OF USING RAD51 INHIBITORS FOR TREATMENT OF PANCREATIC CANCER” (Cyteir Therapeutics, Inc., priority 2019, published 2025).

How the values were obtained:
[1] = test system: Daudi cell line (AID positive); assay: Cell killing assay in the Daudi cell line (AID positive), Cell-Titer Glo; format: cell-based; conditions: Homo sapiens, 168 h; Daudi cells (AID positive), cell death on Day 7
Experimental: Primary screening was a phenotypic screen that utilized the synthetic lethal interaction between AID and RAD51 to identify compounds that were both potent and on target. AID expressing cells are dependent upon RAD51 for survival; inhibiting RAD51 in AID positive cells results in a cytotoxic effect.
The first step was to set up a cell killing assay in the Daudi cell line (AID positive). A 96 well u-bottom plate was prepared by writing the experiment number, plate number, date and initials in the top right corner of the plate lid. With a sterile 300 ml reservoir, and 25 ml serological pipette, evaporation buffer media was pipetted into reservoir in 25 ml increments. Using the liquid handler, 150 ul of evaporation buffer media was pipetted from reservoir into rows A and H, and Columns 1 and 12 of the 96 well u-bottom plate. Cell cultures were counted to obtain the density of cells per ml, and the culture viability. The cell density information was used to obtain 1,000,000 cells from culture using a 5 mL serological pipette into an epi tube. The cell density information from the culture was used to calculate the number of cells and volume of media needed for the assay to seed 1250 cells in 130 ul of media per available culture well in the 96 well u-bottom plate. Rows B through F were used for cells (50 wells in total), with row G left for an empty media control. The calculation was overestimated by 10 mL to account for the dead volume in the 300 ml reservoir. Once the media volume was calculated, the appropriate volume of media was pipetted in 25 mL increments into the 250 mL bottle using a 25 mL serological pipette. The 250 ml bottle was capped tightly, and placed into a 37° C. water bath for 2 minutes. While the culture media was warming, 10 mL of fresh media was pipetted from the 500 mL culture media bottle into a sterile 25 mL reservoir. Using the Eppendorf multichannel pipette, 130 ul of media was pipetted from the 25 mL reservoir into row G of the 96 well u-bottom plate. […]

[2] = Bi-directional Caco-2 permeability; format: in vitro ADME; conditions: human; for Papp A→B at 90 min / Papp B→A at 90 min: Caco-2, 37° C., up to 90 minutes; for Papp A→B at 90 min: apical to basolateral, read-out: AB Papp (cm/sec × 10^6); for Papp B→A at 90 min: basolateral to apical, read-out: BA Papp (cm/sec × 10^6); for efflux ratio at 90 min: Caco-2 efflux ratio, read-out: BA/AB Ratio
Experimental: Bi-directional Caco-2 permeability was assayed. Caco-2 cells were seeded onto permeable polycarbonate supports and allowed to differentiate for about 3 weeks prior to being used in the assays. The cells were then exposed to the compounds from either the apical or basolateral sides and incubated at 37° C. for up to 90 minutes under light agitation. Compound transport was then measured using LC/MS/MS analysis at 30, 60, and 90 minutes.

[3] = test system: ARPE19/HPV16 (HPV Immortalized RPE); assay: Cell line screen, potency assay; format: cell-based; conditions: ARPE-19, AICDA expression Negative
Experimental: Percent cell death and EC50 values were calculated by comparing the cell viability of the compound treated wells to the non-treated wells. Normalized RLU values were obtained by subtracting the media well values from each of the wells in the same column, and then dividing that value by the DMSO treated cells values. The percent kill was then calculated by subtracting the normalized RLU value from 1 and multiplying by 100. The average normalized percent kill value and standard error of the mean was then calculated. The kill values were then inputted into Prism with the corresponding standard errors. In Prism a non-linear regression line was plotted with the data points using a semi-log scale, and the EC50 value was calculated.
The activity of the claimed compounds was measured in a variety of cell lines with different expression levels of activation induced cytidine deaminase (AICDA). The potency assay was repeated in all of the listed cell lines and the EC50 values recorded.

[4] = Pharmacokinetic (PK) study, plasma by LC-MS; format: in vivo, rat; conditions: po @ 80 mg/kg
Experimental: PK studies in mice were used to determine the fate of the compounds in a whole organism. Rats were treated with the compounds either orally of via IV at the indicated doses and followed for up to 24 hours. Plasma samples were taken at different time points and analyzed by LC-MS.

[5] = Human liver microsome stability; format: in vitro ADME; conditions: human liver microsomes
Experimental: The stability of the claimed compounds was determined in the presences of human liver microsomes. The compounds were incubated with the microsomes at 37° C. for 45 minutes. Samples were analyzed using LC-MS/MS. Data analysis included half-life, clearance rate, and the percentage of hepatic blood flow […] for each of the compounds in the different species.

| Papp A→B at 90 min [2] [×10⁻⁶ cm/s] | Papp B→A at 90 min [2] [×10⁻⁶ cm/s] | efflux ratio at 90 min [2] | SMILES | EC50 [1] [nM] | EC50 [3] [nM] | F (%) @ 5 mg/kg ([4]; Rat Female) [%] | F (%) @ 5 mg/kg ([4]; Rat Male) [%] | % QH (percentage of hepatic blood flow) [5] [%] |
| --- | --- | --- | --- | --- | --- | --- | --- | --- |
| – | – | – | CC(C)OC(=O)Nc1ccc(-c2cnc(C3CCC(NC(=O)OC[C@@H]4CCCN4C)CC3)s2)c(S(=O)(=O)NC(C)(C)C)c1 (stereo partly drawn) [Ex. 9, isopropyl (3-(N-(tert-butyl)sulfamoyl)-4-(2-((1S,4r)-4-(((((S)-1-methylpyrrolidin-2-yl)methoxy)carbonyl)amino)cyclohexyl)thiazol-5-yl)phenyl)carbamate] | 100 to 1000 | – | – | – | – |
| 0.4 | 45.2 | 104 | CC(C)OC(=O)NC1CCC(c2ncc(-c3ccc(NC(=O)OC[C@H]4CCCN4C)cc3S(=O)(=O)NC(C)(C)C)s2)CC1 (stereo partly drawn) [Ex. 34, isopropyl ((1R,4r)-4-(5-(2-(N-(tert-butyl)sulfamoyl)-4-(((((R)-1-methylpyrrolidin-2-yl)methoxy)carbonyl)amino)phenyl)thiazol-2-yl)cyclohexyl)carbamate] | 100 to 1000 | – | – | – | – |
| 0.4 | 41 | 99.1 | CC(C)OC(=O)NC1CCC(c2ncc(-c3ccc(NC(=O)OC[C@@H]4CCCN4C)cc3S(=O)(=O)NC(C)(C)C)s2)CC1 (stereo partly drawn) [Ex. 35, isopropyl ((1S,4r)-4-(5-(2-(N-(tert-butyl)sulfamoyl)-4-(((((S)-1-methylpyrrolidin-2-yl)methoxy)carbonyl)amino)phenyl)thiazol-2-yl)cyclohexyl)carbamate] | 100 to 1000 | – | – | – | – |
| – | – | – | CC(C)OC(=O)Nc1ccc(-c2cnc([C@H]3CC[C@H](NC(=O)OC(C)C)CC3)s2)c(S(=O)(=O)NC(C)(C)C)c1 [Ex. 67A, trans-isopropyl N-[3-(tert-butylsulfamoyl)-4-[2-[4-(isopropoxycarbonylamino)cyclohexyl]thiazol-5-yl]phenyl]carbamate] | – | > 10000 | 86.5 | 46.9 | <20.3 |
